From ChEMBL document CHEMBL4507273 (2021)

What was measured:
[1] = system: Tyrosine-protein kinase ABL1 (Homo sapiens), P00519 [F317I]; settings: Compound concentration 1000.0 nM
[2] = biological target: Tyrosine-protein kinase ABL2 (Homo sapiens) (UniProt P42684); settings: Compound concentration 1000.0 nM
[3] = biological target: Activin receptor type-2B (Homo sapiens) (UniProt Q13705); settings: Compound concentration 1000.0 nM
[4] = biological target: ALK tyrosine kinase receptor (Homo sapiens) (UniProt Q9UM73); settings: Compound concentration 1000.0 nM
[5] = system: ALK tyrosine kinase receptor (Homo sapiens), Q9UM73 [C1156Y]; settings: Compound concentration 1000.0 nM
[6] = system: Serine/threonine-protein kinase B-raf (Homo sapiens), P15056 [V600E]; settings: Compound concentration 1000.0 nM
[7] = biological target: Cyclin-dependent kinase 11A (Homo sapiens) (UniProt Q9UQ88); settings: Compound concentration 1000.0 nM
[8] = biological target: Cyclin-dependent kinase 4 (Homo sapiens) (UniProt P11802); settings: Compound concentration 1000.0 nM
[9] = biological target: Macrophage colony-stimulating factor 1 receptor (Homo sapiens) (UniProt P07333); settings: Compound concentration 1000.0 nM
[10] = biological target: Death-associated protein kinase 1 (Homo sapiens) (UniProt P53355); settings: Compound concentration 1000.0 nM
[11] = biological target: Epithelial discoidin domain-containing receptor 1 (Homo sapiens) (UniProt Q08345); settings: Compound concentration 1000.0 nM
[12] = biological target: Myotonin-protein kinase (Homo sapiens) (UniProt Q09013); settings: Compound concentration 1000.0 nM
[13] = biological target: Tyrosine-protein kinase Fer (Homo sapiens) (UniProt P16591); settings: Compound concentration 1000.0 nM
[14] = biological target: Receptor-type tyrosine-protein kinase FLT3 (Homo sapiens) (UniProt P36888); settings: Compound concentration 1000.0 nM
[15] = system: Receptor-type tyrosine-protein kinase FLT3 (Homo sapiens), P36888 [D835Y]; settings: Compound concentration 1000.0 nM
[16] = biological target: Tyrosine-protein kinase FRK (Homo sapiens) (UniProt P42685); settings: Compound concentration 1000.0 nM
[17] = biological target: G protein-coupled receptor kinase 3 (Homo sapiens) (UniProt P35626); settings: Compound concentration 1000.0 nM
[18] = biological target: Rhodopsin kinase GRK7 (Homo sapiens) (UniProt Q8WTQ7); settings: Compound concentration 1000.0 nM
[19] = biological target: Hormonally up-regulated neu tumor-associated kinase (Homo sapiens) (UniProt P57058); settings: Compound concentration 1000.0 nM
[20] = biological target: Serine/threonine-protein kinase ICK (Homo sapiens) (UniProt Q9UPZ9); settings: Compound concentration 1000.0 nM
[21] = system: Mast/stem cell growth factor receptor Kit (Homo sapiens), P10721 [L576P]; settings: Compound concentration 1000.0 nM
[22] = biological target: Mitogen-activated protein kinase kinase kinase kinase 2 (Homo sapiens) (UniProt Q12851); settings: Compound concentration 1000.0 nM
[23] = biological target: Microtubule-associated serine/threonine-protein kinase 1 (Homo sapiens) (UniProt Q9Y2H9); settings: Compound concentration 1000.0 nM
[24] = biological target: MAP kinase-interacting serine/threonine-protein kinase 2 (Homo sapiens) (UniProt Q9HBH9); settings: Compound concentration 1000.0 nM
[25] = biological target: Serine/threonine-protein kinase 26 (Homo sapiens) (UniProt Q9P289); settings: Compound concentration 1000.0 nM
[26] = biological target: Muscle, skeletal receptor tyrosine-protein kinase (Homo sapiens) (UniProt O15146); settings: Compound concentration 1000.0 nM
[27] = biological target: Serine/threonine-protein kinase OSR1 (Homo sapiens) (UniProt O95747); settings: Compound concentration 1000.0 nM
[28] = system: Phosphatidylinositol 4,5-bisphosphate 3-kinase catalytic subunit alpha isoform (Homo sapiens), P42336 [H1047Y]; settings: Compound concentration 1000.0 nM
[29] = biological target: Phosphatidylinositol 4,5-bisphosphate 3-kinase catalytic subunit delta isoform (Homo sapiens) (UniProt O00329); settings: Compound concentration 1000.0 nM
[30] = biological target: Phosphatidylinositol 4-kinase beta (Homo sapiens) (UniProt Q9UBF8); settings: Compound concentration 1000.0 nM
[31] = biological target: Serine/threonine-protein kinase PknB (Mycobacterium tuberculosis) (UniProt P9WI81); settings: Compound concentration 1000.0 nM
[32] = biological target: Serine/threonine-protein kinase PLK1 (Homo sapiens) (UniProt P53350); settings: Compound concentration 1000.0 nM
[33] = biological target: Interferon-induced, double-stranded RNA-activated protein kinase (Homo sapiens) (UniProt P19525); settings: Compound concentration 1000.0 nM
[34] = biological target: Protein-tyrosine kinase 2-beta (Homo sapiens) (UniProt Q14289); settings: Compound concentration 1000.0 nM
[35] = biological target: Ribosomal protein S6 kinase alpha-5 (Homo sapiens) (UniProt O75582); settings: Compound concentration 1000.0 nM
[36] = biological target: SNF-related serine/threonine-protein kinase (Homo sapiens) (UniProt Q9NRH2); settings: Compound concentration 1000.0 nM
[37] = biological target: Serine/threonine-protein kinase TAO1 (Homo sapiens) (UniProt Q7L7X3); settings: Compound concentration 1000.0 nM
[38] = biological target: Tyrosine-protein kinase TXK (Homo sapiens) (UniProt P42681); settings: Compound concentration 1000.0 nM
[39] = biological target: Serine/threonine-protein kinase ULK1 (Homo sapiens) (UniProt O75385); settings: Compound concentration 1000.0 nM
[40] = biological target: Wee1-like protein kinase (Homo sapiens) (UniProt P30291); settings: Compound concentration 1000.0 nM
[41] = biological target: 5-hydroxytryptamine receptor 2A (Homo sapiens, UniProt P28223); settings: Compound concentration 10.0 uM
[42] = biological target: D(1B) dopamine receptor (Homo sapiens) (UniProt P21918); settings: Compound concentration 10.0 uM
Histamine H2 receptor = Histamine H2 receptor (Homo sapiens, UniProt P25021); settings: Compound concentration 10.0 uM
[43] = biological target: Muscarinic acetylcholine receptor M3 (Homo sapiens, UniProt P20309); settings: Compound concentration 10.0 uM
[44] = biological target: Sigma non-opioid intracellular receptor 1 (Homo sapiens) (UniProt Q99720); settings: Compound concentration 10.0 uM
Sigma non-opioid intracellular receptor 1 (Homo sapiens), sequence (Q99720 whole entry): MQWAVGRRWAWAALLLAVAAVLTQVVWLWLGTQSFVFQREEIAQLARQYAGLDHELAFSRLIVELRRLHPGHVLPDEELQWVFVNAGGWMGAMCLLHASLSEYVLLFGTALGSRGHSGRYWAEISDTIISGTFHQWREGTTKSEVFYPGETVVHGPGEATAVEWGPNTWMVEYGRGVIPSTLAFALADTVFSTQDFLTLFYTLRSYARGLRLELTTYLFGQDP

Serine/threonine-protein kinase PknB (Mycobacterium tuberculosis), sequence (P9WI81 whole entry): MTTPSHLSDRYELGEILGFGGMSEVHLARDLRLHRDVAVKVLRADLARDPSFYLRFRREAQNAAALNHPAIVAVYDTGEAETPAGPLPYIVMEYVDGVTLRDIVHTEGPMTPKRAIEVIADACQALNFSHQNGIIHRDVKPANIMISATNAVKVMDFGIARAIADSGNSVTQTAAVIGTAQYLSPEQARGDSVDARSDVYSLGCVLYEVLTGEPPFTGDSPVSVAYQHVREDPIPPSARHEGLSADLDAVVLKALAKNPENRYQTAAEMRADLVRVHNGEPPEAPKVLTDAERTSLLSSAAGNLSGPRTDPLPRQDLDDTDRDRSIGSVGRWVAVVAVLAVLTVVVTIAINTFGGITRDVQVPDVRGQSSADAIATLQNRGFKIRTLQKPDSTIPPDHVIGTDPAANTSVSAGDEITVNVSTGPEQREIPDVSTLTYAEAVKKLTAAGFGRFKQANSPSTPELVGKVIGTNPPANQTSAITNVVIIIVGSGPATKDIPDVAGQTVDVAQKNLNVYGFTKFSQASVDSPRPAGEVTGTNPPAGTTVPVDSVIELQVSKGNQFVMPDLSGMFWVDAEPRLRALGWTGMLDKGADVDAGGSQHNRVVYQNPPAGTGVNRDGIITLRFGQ
Serine/threonine-protein kinase B-raf (Homo sapiens), P15056 [V600E], sequence (P15056 whole entry V600E): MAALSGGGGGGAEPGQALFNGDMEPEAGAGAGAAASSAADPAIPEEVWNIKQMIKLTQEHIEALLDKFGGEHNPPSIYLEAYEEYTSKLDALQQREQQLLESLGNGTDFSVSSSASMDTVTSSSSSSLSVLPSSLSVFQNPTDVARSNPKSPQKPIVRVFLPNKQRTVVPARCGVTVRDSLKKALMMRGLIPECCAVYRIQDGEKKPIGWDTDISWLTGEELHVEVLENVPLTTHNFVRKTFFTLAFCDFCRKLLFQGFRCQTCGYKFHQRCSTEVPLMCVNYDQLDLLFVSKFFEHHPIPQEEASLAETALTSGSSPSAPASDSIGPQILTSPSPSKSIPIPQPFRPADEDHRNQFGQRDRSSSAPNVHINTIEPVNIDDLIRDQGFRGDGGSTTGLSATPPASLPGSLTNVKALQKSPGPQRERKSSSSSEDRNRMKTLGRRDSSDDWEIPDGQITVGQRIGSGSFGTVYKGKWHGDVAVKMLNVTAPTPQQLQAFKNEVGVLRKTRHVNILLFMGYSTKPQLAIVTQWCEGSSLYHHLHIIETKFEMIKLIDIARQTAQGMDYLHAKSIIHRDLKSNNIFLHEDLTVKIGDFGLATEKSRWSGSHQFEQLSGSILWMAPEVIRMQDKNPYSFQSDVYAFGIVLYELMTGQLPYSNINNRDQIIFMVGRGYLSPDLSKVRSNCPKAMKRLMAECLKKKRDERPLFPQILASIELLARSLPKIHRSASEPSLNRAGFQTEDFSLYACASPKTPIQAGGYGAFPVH
Serine/threonine-protein kinase TAO1 (Homo sapiens), sequence (Q7L7X3 whole entry): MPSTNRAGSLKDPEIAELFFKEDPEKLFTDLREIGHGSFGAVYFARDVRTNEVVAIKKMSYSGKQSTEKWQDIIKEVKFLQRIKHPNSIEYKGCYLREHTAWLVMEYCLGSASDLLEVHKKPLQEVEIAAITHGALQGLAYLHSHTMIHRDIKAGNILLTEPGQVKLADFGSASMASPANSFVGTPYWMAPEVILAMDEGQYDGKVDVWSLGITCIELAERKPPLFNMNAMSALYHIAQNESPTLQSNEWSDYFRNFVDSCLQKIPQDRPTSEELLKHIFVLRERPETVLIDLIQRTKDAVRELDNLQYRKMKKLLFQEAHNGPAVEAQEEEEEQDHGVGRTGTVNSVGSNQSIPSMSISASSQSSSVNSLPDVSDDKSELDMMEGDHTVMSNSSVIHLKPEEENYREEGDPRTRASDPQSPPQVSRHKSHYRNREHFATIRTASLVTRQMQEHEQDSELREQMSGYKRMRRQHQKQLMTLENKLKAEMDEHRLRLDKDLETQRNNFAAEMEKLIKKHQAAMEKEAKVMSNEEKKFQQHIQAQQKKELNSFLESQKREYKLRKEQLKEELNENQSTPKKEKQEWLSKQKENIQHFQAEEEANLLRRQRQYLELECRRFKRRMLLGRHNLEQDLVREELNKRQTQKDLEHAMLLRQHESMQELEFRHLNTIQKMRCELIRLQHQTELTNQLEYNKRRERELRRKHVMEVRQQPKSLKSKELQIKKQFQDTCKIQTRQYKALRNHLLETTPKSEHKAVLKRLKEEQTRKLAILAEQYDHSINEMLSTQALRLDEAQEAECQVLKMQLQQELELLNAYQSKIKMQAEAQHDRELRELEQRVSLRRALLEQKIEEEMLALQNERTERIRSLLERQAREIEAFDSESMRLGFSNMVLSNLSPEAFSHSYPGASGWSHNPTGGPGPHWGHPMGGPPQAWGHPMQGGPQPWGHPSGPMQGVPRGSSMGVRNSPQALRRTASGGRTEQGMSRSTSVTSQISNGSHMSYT
Muscarinic acetylcholine receptor M3, sequence (P20309 whole entry, looked up): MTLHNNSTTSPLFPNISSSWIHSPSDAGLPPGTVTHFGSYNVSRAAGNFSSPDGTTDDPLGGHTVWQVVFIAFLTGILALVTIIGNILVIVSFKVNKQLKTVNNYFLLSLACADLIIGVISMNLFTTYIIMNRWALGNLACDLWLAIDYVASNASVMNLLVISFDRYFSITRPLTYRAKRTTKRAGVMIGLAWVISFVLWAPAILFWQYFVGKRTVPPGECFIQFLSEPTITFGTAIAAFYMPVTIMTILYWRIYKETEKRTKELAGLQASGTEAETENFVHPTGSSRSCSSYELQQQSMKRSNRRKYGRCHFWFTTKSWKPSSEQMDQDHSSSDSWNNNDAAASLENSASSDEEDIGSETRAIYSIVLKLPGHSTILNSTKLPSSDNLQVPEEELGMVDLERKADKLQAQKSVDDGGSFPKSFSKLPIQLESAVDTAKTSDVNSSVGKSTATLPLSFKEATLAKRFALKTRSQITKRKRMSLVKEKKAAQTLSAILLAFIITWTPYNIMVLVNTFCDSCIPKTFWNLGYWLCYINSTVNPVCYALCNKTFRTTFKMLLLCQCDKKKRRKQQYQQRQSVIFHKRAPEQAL
Wee1-like protein kinase (Homo sapiens), sequence (P30291 whole entry, looked up): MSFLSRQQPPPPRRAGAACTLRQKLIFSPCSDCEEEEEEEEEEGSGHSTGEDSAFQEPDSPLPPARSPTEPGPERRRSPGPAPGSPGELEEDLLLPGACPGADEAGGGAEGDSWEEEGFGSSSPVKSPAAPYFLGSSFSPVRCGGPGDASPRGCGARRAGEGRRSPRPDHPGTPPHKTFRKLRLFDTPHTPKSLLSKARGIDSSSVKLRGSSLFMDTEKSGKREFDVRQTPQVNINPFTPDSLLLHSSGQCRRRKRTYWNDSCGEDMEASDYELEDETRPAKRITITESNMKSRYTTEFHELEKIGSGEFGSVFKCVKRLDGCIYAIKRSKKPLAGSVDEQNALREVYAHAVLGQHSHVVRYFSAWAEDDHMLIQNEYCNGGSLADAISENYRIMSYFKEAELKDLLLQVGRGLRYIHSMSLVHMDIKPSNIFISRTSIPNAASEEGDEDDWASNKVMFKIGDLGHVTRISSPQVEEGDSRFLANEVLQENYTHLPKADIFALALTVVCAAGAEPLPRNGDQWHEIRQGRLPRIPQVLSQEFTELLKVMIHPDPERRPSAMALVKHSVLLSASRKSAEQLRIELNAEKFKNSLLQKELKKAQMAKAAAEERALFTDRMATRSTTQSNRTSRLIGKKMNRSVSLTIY
5-hydroxytryptamine receptor 2A, sequence (P28223 whole entry): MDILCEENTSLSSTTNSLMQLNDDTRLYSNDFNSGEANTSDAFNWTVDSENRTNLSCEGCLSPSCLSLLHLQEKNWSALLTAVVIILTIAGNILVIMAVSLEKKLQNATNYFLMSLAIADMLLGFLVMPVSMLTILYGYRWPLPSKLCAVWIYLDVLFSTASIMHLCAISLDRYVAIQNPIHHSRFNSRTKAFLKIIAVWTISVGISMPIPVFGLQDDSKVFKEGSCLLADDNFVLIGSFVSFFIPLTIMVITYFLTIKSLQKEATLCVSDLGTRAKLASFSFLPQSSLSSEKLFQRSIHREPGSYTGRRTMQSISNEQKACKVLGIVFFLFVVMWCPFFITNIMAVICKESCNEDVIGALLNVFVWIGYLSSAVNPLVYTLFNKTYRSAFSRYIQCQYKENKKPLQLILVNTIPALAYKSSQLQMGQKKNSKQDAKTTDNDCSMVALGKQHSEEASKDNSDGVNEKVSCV
Serine/threonine-protein kinase OSR1 (Homo sapiens), sequence (O95747 2-527 limits assumed): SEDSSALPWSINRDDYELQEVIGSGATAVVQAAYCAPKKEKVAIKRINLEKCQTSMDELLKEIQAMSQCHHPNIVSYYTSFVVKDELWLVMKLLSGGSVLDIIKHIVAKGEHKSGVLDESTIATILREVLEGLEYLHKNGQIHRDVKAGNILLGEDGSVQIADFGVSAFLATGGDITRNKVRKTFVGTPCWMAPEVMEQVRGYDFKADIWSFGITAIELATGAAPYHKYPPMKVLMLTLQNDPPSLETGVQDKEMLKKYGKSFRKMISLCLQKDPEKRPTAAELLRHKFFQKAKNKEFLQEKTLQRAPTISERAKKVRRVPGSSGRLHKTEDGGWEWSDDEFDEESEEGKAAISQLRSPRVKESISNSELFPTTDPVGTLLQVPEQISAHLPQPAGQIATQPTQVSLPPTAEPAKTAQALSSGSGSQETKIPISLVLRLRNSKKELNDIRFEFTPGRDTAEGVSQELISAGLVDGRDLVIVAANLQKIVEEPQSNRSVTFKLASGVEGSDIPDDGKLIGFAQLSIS

Work on CNCc1ccccc1-c1csc([C@@H](C)Nc2nc(C)nc3cc(OC)c(OC)cc23)c1 [BAY-293] yielded a residual activity [1] of 100%, a residual activity [2] of 100% and a residual activity [3] of 100%. For the same molecule, the residual activity [4] was 79%, the residual activity [5] was 100% and the residual activity [6] was 100%. For the same molecule, the residual activity [7] was 91%, the residual activity [8] was 100% and the residual activity [9] was 100%. The residual activity [10] was 99%, the residual activity [11] was 100% and the residual activity [12] was 86%. It also gave a residual activity [13] of 100%, a residual activity [14] of 97% and a residual activity [15] of 84%. It also gave a residual activity [16] of 100%, a residual activity [17] of 98% and a residual activity [18] of 83%. The residual activity [19] was 100%, the residual activity [20] was 82% and the residual activity [21] was 92%. For the same molecule, the residual activity [22] was 91%, the residual activity [23] was 76% and the residual activity [24] was 63%. For the same molecule, the residual activity [25] was 99%, the residual activity [26] was 93% and the residual activity [27] was 67%. For the same molecule, the residual activity [28] was 100%, the residual activity [29] was 75% and the residual activity [30] was 82%. It also gave a residual activity [31] of 76%, a residual activity [32] of 80% and a residual activity [33] of 90%. For the same molecule, the residual activity [34] was 100%, the residual activity [35] was 89% and the residual activity [36] was 78%. It also gave a residual activity [37] of 95%, a residual activity [38] of 76% and a residual activity [39] of 88%. It also gave a residual activity [40] of 100%, an inhibition [41] of 98.5% and an inhibition [42] of 32.5%. It also gave an inhibition (Histamine H2 receptor) of 100%, an inhibition [43] of 56.5% and an inhibition [44] of 22.6%.
In the case of CNCc1ccccc1-c1csc([C@H](C)Nc2nc(C)nc3cc(OC)c(OC)cc23)c1 [BAY-294], the residual activity [1] is reported as 100%, the residual activity [2] is reported as 100% and the residual activity [3] is reported as 100%. It also gave a residual activity [4] of 73%, a residual activity [5] of 100% and a residual activity [6] of 84%. For the same molecule, the residual activity [7] was 100%, the residual activity [8] was 100% and the residual activity [9] was 100%. The residual activity [10] was 100%, the residual activity [11] was 100% and the residual activity [12] was 85%. For the same molecule, the residual activity [13] was 100%, the residual activity [14] was 100% and the residual activity [15] was 100%. The residual activity [16] was 100%, the residual activity [17] was 91% and the residual activity [18] was 89%. It also gave a residual activity [19] of 100%, a residual activity [20] of 86% and a residual activity [21] of 100%. It also gave a residual activity [22] of 97%, a residual activity [23] of 96% and a residual activity [24] of 71%. For the same molecule, the residual activity [25] was 97%, the residual activity [26] was 90% and the residual activity [27] was 78%. For the same molecule, the residual activity [28] was 100%, the residual activity [29] was 100% and the residual activity [30] was 74%. The residual activity [31] was 90%, the residual activity [32] was 85% and the residual activity [33] was 100%. The residual activity [34] was 100%, the residual activity [35] was 82% and the residual activity [36] was 93%. It also gave a residual activity [37] of 100%, a residual activity [38] of 100% and a residual activity [39] of 91%. It also gave a residual activity [40] of 100%, an inhibition [41] of 99.2% and an inhibition [42] of 36.6%. It also gave an inhibition (Histamine H2 receptor) of 101%, an inhibition [43] of 48% and an inhibition [44] of 49%.
